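Abbreviation: GI50, concentration required for 50% inhibition of growth. TGI marks complete inhibition of growth.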
How the values were obtained:
Experiment in all cases: inhibition of tumour cell growth, NCI panel, 384-well format
K-562 leukemia = system: K-562 leukemia
NCI-H322M lung = system: NCI-H322M lung
NCI-H522 lung = system: NCI-H522 lung
SF-268 CNS = system: SF-268 CNS
SW-620 colon = system: SW-620 colon
NCI-H226 lung = system: NCI-H226 lung
PC-3 prostate = system: PC-3 prostate
COLO 205 colon = system: COLO 205 colon
HOP-62 NSCLC = system: HOP-62 NSCLC
NCI-H460 NSCLC = system: NCI-H460 NSCLC
MDA-MB-435 melanoma = system: MDA-MB-435 melanoma
M14 melanoma = system: M14 melanoma
NCI-H23 lung = system: NCI-H23 lung
ACHN renal = system: ACHN renal
BT-549 breast = system: BT-549 breast
UACC-62 melanoma = system: UACC-62 melanoma
SF-539 CNS = system: SF-539 CNS
A549 NSCLC = system: A549 NSCLC
786-0 renal = system: 786-0 renal
A498 renal = system: A498 renal
HCC-2998 colon = system: HCC-2998 colon
OVCAR-8 ovarian = system: OVCAR-8 ovarian
CAKI-1 renal = system: CAKI-1 renal
SF-295 CNS = system: SF-295 CNS
SK-MEL-5 melanoma = system: SK-MEL-5 melanoma
TK-10 renal = system: TK-10 renal
U251 glioblastoma = system: U251 glioblastoma
IGROV1 ovarian = system: IGROV1 ovarian

## Nc1ncc(-c2cnn(CCO)c2)c2scc(-c3ccc(NC(=O)Nc4cccc(F)c4)cc3)c12
K-562 leukemia
  GI50: 16.7 nM
  TGI: 42.9 nM
NCI-H322M lung
  GI50: 634 nM
  TGI: 2890 nM
NCI-H522 lung
  GI50: 220 nM
  TGI: 928 nM
SF-268 CNS
  GI50: 354 nM
  TGI: 1920 nM
SW-620 colon
  GI50: 242 nM
  TGI: 1130 nM
NCI-H226 lung
  GI50: 238 nM
  TGI: 2090 nM
PC-3 prostate
  GI50: 1270 nM
  TGI: 3730 nM
COLO 205 colon
  GI50: < 10 nM
  TGI: 241 nM
HOP-62 NSCLC
  GI50: 309 nM
  TGI: 1810 nM
NCI-H460 NSCLC
  GI50: < 10 nM
  TGI: 1060 nM
MDA-MB-435 melanoma
  GI50: 317 nM
  TGI: 1890 nM
M14 melanoma
  GI50: 147 nM
  TGI: 1140 nM
NCI-H23 lung
  GI50: 178 nM
  TGI: 603 nM
ACHN renal
  GI50: 352 nM
  TGI: 1770 nM
BT-549 breast
  GI50: 323 nM
  TGI: 1280 nM
UACC-62 melanoma
  GI50: 376 nM
  TGI: 1640 nM
SF-539 CNS
  GI50: 169 nM
  TGI: 1110 nM
A549 NSCLC
  GI50: 263 nM
  TGI: 3770 nM
786-0 renal
  GI50: 373 nM
  TGI: 1740 nM
A498 renal
  GI50: 312 nM
  TGI: 1720 nM
HCC-2998 colon
  GI50: 1160 nM
  TGI: 2550 nM
OVCAR-8 ovarian
  GI50: 315 nM
  TGI: 2130 nM
CAKI-1 renal
  GI50: 212 nM
  TGI: 1200 nM
SF-295 CNS
  GI50: 186 nM
  TGI: 1370 nM
SK-MEL-5 melanoma
  GI50: 807 nM
  TGI: 2070 nM
TK-10 renal
  GI50: 920 nM
  TGI: 3620 nM
U251 glioblastoma
  GI50: 812 nM
  TGI: 2170 nM
IGROV1 ovarian
  GI50: 385 nM

Reference: PubChem BioAssay (NCI)
